According to patent US12629370B2, “Treatment of prostate cancer” (Sumitomo Pharma Co., Ltd., priority 2016, dated 2026):
“And” between values parts separate entries of the source, which are not always exact repeats. Equal values may be shown once.

Assays:
Format in all cases: in vivo, human
serum testosterone [1] = assay: Example 8: serum testosterone in men with advanced prostate cancer, versus leuprolide acetate
Excerpt: Eligible men were aged ≥18 years with a histologically confirmed diagnosis of prostate adenocarcinoma, and were candidates for ADT for the management of hormone-sensitive prostate cancer with one of the following clinical disease states: advanced localized disease not suitable for primary surgical or radiation therapy; evidence of PSA biochemical or clinical relapse following primary surgery or radiation therapy of curative intent; or newly diagnosed metastatic disease that was asymptomatic and without visceral involvement. […] Patients with advanced, localized MON1 or M1 disease with clinically significant symptoms or visceral involvement, who required immediate GnRH therapy, chemotherapy, or radiation therapy were not eligible for the trial.
Serum testosterone levels were measured at each visit.

serum testosterone [2] = assay: Example 9: serum testosterone, castration and recovery, neoadjuvant/adjuvant ADT to EBRT, versus degarelix
Description: Eligible male patients were aged ≥18 years with a histologically confirmed diagnosis of localized, intermediate-risk prostate cancer, for whom 6-month neoadjuvant and adjuvant androgen deprivation therapy (ADT) to external beam radiation therapy (EBRT) was indicated. The criteria for establishing intermediate-risk prostate cancer included the presence of one of the following, without any high-risk feature: T2b-T2c disease, Gleason score 7, or prostate-specific antigen (PSA) 10-20 ng/mL. […] Based on investigator discretion and clinical assessment of the patient's overall medical and disease status, participation was allowed for older patients with high-risk disease (e.g., based on Gleason score or tumor status) who were deemed likely to benefit from 6 months of neoadjuvant/adjuvant ADT.
Both treatment arms received treatment for 24 weeks. […] EBRT began no later than day 1, week 17. […]
Samples for testosterone, luteinizing hormone (LH), FSH, and PSA concentrations were taken at screening, on day 1 of the first week (additionally days 2 and 4 for testosterone and LH), and on day 1 of weeks 2, 3, 5, 9, 13, 17, 21, 25, 29, 33, and 37 thereafter.

FSH = assay: Example 8: FSH levels;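 also: FSH determined at every study visit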
Description: Patients on leuprorelin received their final injection at week 37, day 1, and the week 49, day 1 visit was considered the end of leuprorelin exposure. Patients receiving leuprorelin at visits at 16 (EOT), 20 (follow-up visit), and 24 (EOS) weeks after the last leuprorelin injection.
FSH levels were also measured at each visit.

[3] = Compound 1 80 or 120 mg QD after 320 mg load
[4] = Compound 1 Total, End of Treatment
[5] = Compound 1 Total, Week 49, Day 1
[6] = subjects with at least 24 weeks of treatment
[7] = Compound 1 Total, Week 2, Day 1
[8] = Compound 1 Total, Week 5, Day 1
[9] = Compound 1 Total, Week 13, Day 1
[10] = Compound 1 Total, Week 25, Day 1

SMILES: CONC(=O)Nc1ccc(-c2sc3c(c2CN(C)C)c(=O)n(-c2ccc(OC)nn2)c(=O)n3Cc2c(F)cccc2F)cc1 [Compound 1, N-(4-(1-(2,6-difluorobenzyl)-5-((dimethylamino)methyl)-3-(6-methoxy-3-pyridazinyl)-2,4-dioxo-1,2,3,4-tetrahydrothieno[2,3-d]pyrimidin-6-yl)phenyl)-N′-methoxyurea]
- Testosterone Mean (Std Dev) (serum testosterone [1]; 80 mg QD, Baseline): 13.755 (4,7256) nmol/L
- Testosterone Median (serum testosterone [1]; 80 mg QD, Baseline): 12.700 nmol/L
- Testosterone Mean (Std Dev) (serum testosterone [1]; 80 mg QD, End of Study): 6.933 (6.4298) nmol/L
- Testosterone Median (serum testosterone [1]; 80 mg QD, End of Study): 5.340 nmol/L
- Testosterone Mean (Std Dev) (serum testosterone [1]; 80 mg QD, End of Treatment): 7.211 (9.2178) nmol/L
- Testosterone Median (serum testosterone [1]; 80 mg QD, End of Treatment): 3.125 nmol/L
- Testosterone Mean (Std Dev) (serum testosterone [1]; 80 mg QD, Follow-Up): 11.004 (5.9971) nmol/L
- Testosterone Median (serum testosterone [1]; 80 mg QD, Follow-Up): 13.185 nmol/L
- Testosterone Median (serum testosterone [1]; 80 mg QD, Week 49, Day 1): 0.380 nmol/L
- Testosterone Median (serum testosterone [1]; 120 mg QD, Baseline): 14.350 nmol/L
- Median testosterone (serum testosterone [1]; 120 mg QD, EOS (12 weeks after stopping)): 322.8 ng/dL
- Median testosterone (serum testosterone [1]; 120 mg QD, EOT (4 weeks after end of treatment)): 72.9 ng/dL
- Testosterone Mean (Std Dev) (serum testosterone [1]; 120 mg QD, End of Study): 9.565 (7.6479) nmol/L
- Testosterone Median (serum testosterone [1]; 120 mg QD, End of Study): 11.210 nmol/L
- Testosterone Mean (Std Dev) (serum testosterone [1]; 120 mg QD, End of Treatment): 3.592 (3.7809) nmol/L
- Testosterone Median (serum testosterone [1]; 120 mg QD, End of Treatment): 2.530 nmol/L
- Testosterone Median (serum testosterone [1]; 120 mg QD, Follow-Up): 11.450 nmol/L
- Median testosterone (serum testosterone [1]; 120 mg QD, Follow-up visit (8 weeks after stopping)): 329.8 ng/dL
- Testosterone Mean (Std Dev) (serum testosterone [1]; 120 mg QD, Week 49, Day 1): 0.443 (0.2745) nmol/L
- Testosterone Median (serum testosterone [1]; 120 mg QD, Week 49, Day 1): 0.365 nmol/L
- serum testosterone after stopping treatment (serum testosterone [1]; 4 weeks after the end of treatment): > 50 ng/dL
- visit by which average serum testosterone decreased below medical castration threshold of 50 ng/dL (serum testosterone [1]; [3]): Day 4
- visit by which average serum testosterone decreased below profound castration threshold of 20 ng/dL (serum testosterone [1]; [3]): Week 5 Day 1
- Testosterone Mean (Std Dev) (serum testosterone [1]; Compound 1 Total, Baseline): 14.4 nmol/L
- Testosterone Median (serum testosterone [1]; Compound 1 Total, Baseline): 13.600 nmol/L
- Testosterone Mean (Std Dev) (serum testosterone [1]; Compound 1 Total, End of Study): 8.249 (7.0702) nmol/L
- Testosterone Median (serum testosterone [1]; Compound 1 Total, End of Study): 7.425 nmol/L
- Testosterone Mean (Std Dev) (serum testosterone [1]; [4]): 5.039 (6.6432) nmol/L
- Testosterone Median (serum testosterone [1]; [4]): 2.530 nmol/L
- Testosterone Mean (Std Dev) (serum testosterone [1]; Compound 1 Total, Follow-Up): 12.094 (5.9829) nmol/L
- Testosterone Median (serum testosterone [1]; Compound 1 Total, Follow-Up): 11.970 nmol/L
- Testosterone Mean (Std Dev) (serum testosterone [1]; [5]): 0.487 (0.3867) nmol/L
- Testosterone Median (serum testosterone [1]; [5]): 0.380 nmol/L
- median serum testosterone (serum testosterone [1]; Compound 1 groups, weeks 5-49): < 20 ng/dL
- testosterone surge or tumor flare after treatment initiation (serum testosterone [1]; in vivo): No serum testosterone surge or resultant tumor flare occurred
- visit by which average serum testosterone decreased below medical castration threshold of 50 ng/dL (serum testosterone [2]; 120 mg QD after 320 mg load): Day 4
- visit by which average serum testosterone decreased below profound castration threshold of 20 ng/dl (serum testosterone [2]; 120 mg QD after 320 mg load): Week 5 Day 1
- Kaplan-Meier estimate (95% CI) of testosterone recovery, probability of event (serum testosterone [2]; 4 weeks from last dose): 0.03 (0.00.0.08)
- Percent recovery (95% CI) to baseline testosterone or >280 ng/dL (serum testosterone [2]; 4 weeks from last dose): 3.1 (0.4.10.7) %
- Kaplan-Meier estimate (95% CI) of testosterone recovery, probability of event (serum testosterone [2]; 8 weeks from last dose): 0.24 (0.13.0.34)
- Percent recovery (95% CI) to baseline testosterone or >280 ng/dL (serum testosterone [2]; 8 weeks from last dose): 23.1 (13.5.35.2) %
- Kaplan-Meier estimate (95% CI) of testosterone recovery, probability of event (serum testosterone [2]; 12 weeks from last dose): 045 (0.33.0.58)
- Median testosterone (serum testosterone [2]; Baseline): 355.7 ng/dL
- Testosterone Median (serum testosterone [2]; Baseline): 12.350 nmol/L
- Testosterone Mean (Std Dev) (serum testosterone [2]; Baseline, Compound 1 120 mg QD or degarelix 80 mg Q4W): 14.067 (6.7100) nmol/L
- Testosterone Median (serum testosterone [2]; EOS): 8.920 nmol/L
- Testosterone Mean (Std Dev) (serum testosterone [2]; EOT): 5.117 (5.7671) nmol/L
- Testosterone Median (serum testosterone [2]; EOT): 3.260 nmol/L
- Testosterone Mean (Std Dev) (serum testosterone [2]; Follow-Up): 9.889 (6.3879) nmol/L
- Testosterone Median (serum testosterone [2]; Follow-Up): 8.275 nmol/L
- time after start of dosing at which serum testosterone was on average below medical castration levels (serum testosterone [2]; Week 1 Day 4): 72 h
- Median testosterone (serum testosterone [2]; Week 24): 8.1 ng/dL
- Testosterone Mean (Std Dev) (serum testosterone [2]; Week 25, Day 1): 0.395 (0.5584) nmol/L
- Testosterone Median (serum testosterone [2]; Week 25, Day 1): 0.280 nmol/L
- Median testosterone (serum testosterone [2]; Week 28/EOT visit): 93.9 ng/dL
- Median testosterone (serum testosterone [2]; Week 32/follow-up): 238.3 ng/dL
- Median testosterone (serum testosterone [2]; Week 36/EOS): 256.9 ng/dL
- patients recovered to baseline testosterone or >280 ng/dL (serum testosterone [2]; by 8 weeks of follow-up): Nearly half
- patients recovered to baseline testosterone or greater than 280 ng/dL (serum testosterone [2]; end of 12-week follow-up): approximately half
- mean serum testosterone after removal of therapy (serum testosterone [2]; follow-up visit and end of study): approximately 10 nmol/L
- Median time to medical castration (≤50 ng/dL) (serum testosterone [2]; in vivo): 4 days
- Median time to profound castration (≤20 ng/dL) (serum testosterone [2]; in vivo): 15 days
- medical castration rate (less than 50 ng/dL) (serum testosterone [2]; over 24 weeks, overall): 95%
- profound castration rate (less than 20 ng/dL) (serum testosterone [2]; over 24 weeks, overall): 82%
- Testosterone recovery (baseline or >280 ng/dL): number with events (serum testosterone [2]; overall safety population): 34 (52) n (%)
- Testosterone recovery: number censored (serum testosterone [2]; overall safety population): 30 (46) n (%)
- Time to testosterone recovery, 25th percentile (95% CI) (serum testosterone [2]; overall safety population): 57 (45.62) days
- Time to testosterone recovery, 75th percentile (95% CI) (serum testosterone [2]; overall safety population): 127 (93.127) days
- Time to testosterone recovery, Median (95% CI) (serum testosterone [2]; overall safety population): 91 (62, 127) days and 91 (62.127) days
- median (95% CI) number of days to testosterone recovery (serum testosterone [2]; patients treated for at least 24 weeks): 86 (58, 93) days
- medical castration rate (less than 50 ng/dL) (serum testosterone [2]; [6]): 98%
- profound castration rate (less than 20 ng/dL) (serum testosterone [2]; [6]): 84%
- FSH Mean (Std Dev) (FSH; 80 mg QD, Baseline): 14.729 (14.3473) IU/L
- FSH Median (FSH; 80 mg QD, Baseline): 9.550 IU/L
- FSH Mean (Std Dev) (FSH; 80 mg QD, Week 2, Day 1): 3.112 (3.0612) IU/L
- FSH Median (FSH; 80 mg QD, Week 2, Day 1): 2.100 IU/L
- FSH Mean (Std Dev) (FSH; 80 mg QD, Week 5, Day 1): 1.248 (2.6737) IU/L
- FSH Median (FSH; 80 mg QD, Week 5, Day 1): 0.400 IU/L
- FSH Mean (Std Dev) (FSH; 80 mg QD, Week 13, Day 1): 1.137 (2.4242) IU/L
- FSH Median (FSH; 80 mg QD, Week 13, Day 1): 0.500 IU/L
- FSH Mean (Std Dev) (FSH; 80 mg QD, Week 25, Day 1): 1.090 (0.9932) IU/L
- FSH Median (FSH; 80 mg QD, Week 25, Day 1): 0.800 IU/L
- FSH Mean (Std Dev) (FSH; 80 mg QD, Week 49, Day 1): 1.802 (1.3956) IU/L
- FSH Median (FSH; 80 mg QD, Week 49, Day 1): 1.450 IU/L
- FSH Median (FSH; 120 mg QD, Baseline): 11.050 IU/L
- FSH Mean (Std Dev) (FSH; 120 mg QD, Week 2, Day 1): 3.183 (2.8956) IU/L
- FSH Median (FSH; 120 mg QD, Week 2, Day 1): 2.300 IU/L
- FSH Mean (Std Dev) (FSH; 120 mg QD, Week 5, Day 1): 1.035 (1.0479) IU/L
- FSH Median (FSH; 120 mg QD, Week 5, Day 1): 0.600 IU/L
- FSH Mean (Std Dev) (FSH; 120 mg QD, Week 13, Day 1): 0.908 (0.8104) IU/L
- FSH Median (FSH; 120 mg QD, Week 13, Day 1): 0.600 IU/L
- FSH Mean (Std Dev) (FSH; 120 mg QD, Week 25, Day 1): 1.344 (0.9675) IU/L
- FSH Median (FSH; 120 mg QD, Week 25, Day 1): 1.200 IU/L
- FSH Mean (Std Dev) (FSH; 120 mg QD, Week 49, Day 1): 1.938 (1.2169) IU/L
- FSH Median (FSH; 120 mg QD, Week 49, Day 1): 1.600 IU/L
- FSH range over the course of 48 weeks (FSH; 120 mg dose, >10 mIU/mL at baseline): 0.6-1.6 mIU/mL
- FSH Mean (Std Dev) (FSH; Compound 1 Total, Baseline): 15.269 (13.5920) IU/L
- FSH Median (FSH; Compound 1 Total, Baseline): 9.850 IU/L
- FSH Mean (Std Dev) (FSH; [7]): 3.147 (2.9653) IU/L
- FSH Median (FSH; [7]): 2.150 IU/L
- FSH Mean (Std Dev) (FSH; [8]): 1.143 (2.0379) IU/L
- FSH Median (FSH; [8]): 0.550 IU/L
- FSH Mean (Std Dev) (FSH; [9]): 1.025 (1.8164) IU/L
- FSH Median (FSH; [9]): 0.500 IU/L
- FSH Mean (Std Dev) (FSH; [10]): 1.215 (0.9838) IU/L
- FSH Median (FSH; [10]): 0.900 IU/L
- FSH Mean (Std Dev) (FSH; [5]): 1.867 (1.3077) IU/L
- FSH Median (FSH; [5]): 1.500 IU/L
- median FSH (FSH; after 48 weeks of treatment): 1.62 mIU/mL
